{"source": "patent US20020132021A1", "about": "“Elicited plant products” (priority 1997, published 2002)", "origin": "cited, not measured here", "tested_on": "indole alkaloid pathway", "details": "jasmonic acid addition, dosage studies", "data": [{"smiles": "CC/C=C\\C[C@H]1C(=O)CC[C@@H]1CC(=O)O", "note": "[Jasmonic acid]", "values": [{"measurement": "increase in the specific yield of ajmalicine", "value": 80, "unit": "%"}, {"measurement": "increase in the specific yield of horhammericine", "value": 500, "unit": "%"}, {"measurement": "increase in the specific yield of lochnericine", "value": 150, "unit": "%"}, {"measurement": "increase in the specific yield of serpentine", "value": 60, "unit": "%"}]}]}
